Results published in PMC5786472 (Cell, 2018).
Where no end group is shown, it is not given here.

Columns and labels:
[1] = tested on: E. coli K-12 strain W3110; type: cell-based, Escherichia coli
[2] = tested on: E. coli conferring New-Delhi metallo-beta-lactamase (NDM) resistance; settings: 10mM Tris (pH7.4) + 25mM NaCl, 20 hours, 37°C, at least 99.9% killing of inoculum; representative of three independent experiments
[3] = tested on: E. coli W3110, Acinetobacter baumannii (Ab 5075), Pseudomonas aeruginosa (PA14), NDM E. coli; settings: 20 h
E. coli = assay: SLAY screen of a defined library of five surface-displayed peptides; type: cell-based, Escherichia coli

Row | Compound | effect of surface-displayed peptide on growth [1] | MBC NDM E. coli [2] [µM] | further results
1 | CC(C)C[C@H](NC(=O)[C@H](CCCNC(=N)N)NC(=O)CNC(=O)CNC(=O)[C@@H](N)CCCNC(=N)N)C(=O)N[C@H]1CSSC[C@@H](C(=O)N[C@H](C(=O)NCC(=O)N[C@@H](CCCNC(=N)N)C(N)=O)C(C)C)NC(=O)[C@H](C(C)C)NC(=O)[C@@H]2CSSC[C@H](NC(=O)[C@H](Cc3ccc(O)cc3)NC1=O)C(=O)N[C@@H](CCCNC(=N)N)C(=O)N[C@@H](CCCNC(=N)N)C(=O)N[C@@H](CCCNC(=N)N)C(=O)N[C@@H](Cc1ccccc1)C(=O)N2 [Protegrin 1] | strong antimicrobial activity |  | 
2 | DATPHAALFFTVKDHTAGDN [Peptide P15] |  | 64 | 
3 | LPLPSCSSHGGDADNTSQRN [Peptide P11] |  | 32 | 
4 | RLVRILVSKRPVAIKPYFRL [Peptide P1] |  |  | MBC over all bacteria tested [3]: less than 2 μM
5 | YPYDVPDYAAYPYDVPDYAA [Peptide 2xHA] | grew similarly at all IPTG concentrations |  | log2 fold (E. coli): −0.01
6 | dermaseptin | strong antimicrobial activity |  | 
